# Experimental data as given in US20070179113A1, “GM-CSF gene therapy for Crohn's disease using an improved regulated expression system” (Schering Aktiengesellachaft, priority 2005, published 2007).
# Like-named read-outs stand apart in the source and are kept apart here.
# Legend:
# acute EAE in SJL mice = assay: Mouse acute EAE model, mIFN-β protein; type: in vivo; details: IP twice daily; Mesopram 9 mg/kg, Prednisolone 2.5 mg/kg
# [1] = test system: DSS-induced colitis in Balb/C mice; assay: DSS-induced colitis model (5% DSS), validation, Disease Activity Index; type: in vivo; details: daily treatment, Mesopram/Metronidazole 50 mg/kg IP, mGM-CSF 5 μg non-pegylated, 5 or 10 μg pegylated
# Method: Disease was induced in BalbC mice (N=10/group) by DSS (5%) applied daily in the drinking water. Mesopram, Metronidazole, or yeast expressed non-pegylated respectively pegylated mGM-CSF, was administered daily over a period of 8 days. Clinical scores (Daily Activity Index (DAI), a cumulative index of: weight loss, stool consistency, and rectal bleeding) were recorded daily.
# (§1) Likewise, the DSS-induced mouse colitis model is useful for evaluating therapies for UC, IBD and CD. Disease is induced in mice by daily administration of 5% or 7% dextran sodium sulfate (DSS) in the drinking water over 8 days. Disease progression is monitored by the Daily Activity Index (DAI), a cumulative index of: weight loss, stool consistency, and rectal bleeding, which mimics the symptoms of UC, IBD and/or CD.
# vi. DSS-induced colitis model. Prior to the gene delivery study the model was established and validated in Balb/C mice using non-pegylated and pegylated mGM-CSF protein. Disease was induced in Balb/C mice with 5% dextran sodium sulfate (DSS), provided in the drinking water every day over a period of 8 days. As the main endpoint, the Disease Activity Index (DAI, a cumulative index of: weight loss, stool consistency, and rectal bleeding) was recorded daily. […]
# [2] = mGM-CSF concentration in sera at day 8 of the DSS colitis study; details: final day of DSS study
# Method: (§2) At day 8, the final day of the study, mGM-CSF concentrations were measured in sera of all mice.
# DSS-induced colitis = DSS-induced colitis model (7% DSS), proof of concept with pCMV-GMCSF plasmid DNA; type: in vivo, mice; details: plasmid single injection day 0 + EP, drugs and protein daily
# Method: Two concentrations of pCMV-mGMCSF were tested side by side with a control plasmid (pNull) and two mGM-CSF protein formulations, non-pegylated and pegylated in the DSS-induced colitis model (N=10/group). A single plasmid DNA injection was administered at day 0 followed by electroporation. Murine GM-CSF protein was injected s.c. daily. Disease was induced with 7% DSS in the drinking water and clinical scores (DIA) were recorded daily.
# as §1
# vii. […] In this study the efficacy of pGMCSF plasmid DNA was evaluated side by side with Mesopram, Metronidazole, non-pegylated or pegylated mGM-CSF. The disease was induced using 7% DSS, administered daily in the drinking water. Mesopram, Metronidazole and mGM-CSF protein were administered daily, using the same dosing regimen as described for the validation study. pGMCSF plasmid DNA was injected at day 0 followed by electroporation. […]
# [3] = mouse, in vivo
# Method: as §2
# GAL-4 DBS = details: read-out: Kd for binding; cited from earlier work
Compound,"clinical scores of EAE, positive controls (acute EAE in SJL mice)",DAI score [1],GM-CSF in sera at day 8 [2],disease scores (DAI) (DSS-induced colitis),GM-CSF in sera at day 8 [3],Kd (GAL-4 DBS)
"CCCOc1cc([C@]2(C)CNC(=O)O2)ccc1OC [Mesopram, reference compound]",significantly decreased clinical scores,significantly reduced,not detectable,efficacious,–,–
"Cc1ncc([N+](=O)[O-])n1CCO [Metronidazole, reference compound]",–,significantly reduced,–,efficacious,not detectable,–
C[C@]12C=CC(=O)C=C1CC[C@@H]1[C@@H]2[C@@H](O)C[C@@]2(C)[C@H]1CC[C@]2(O)C(=O)CO [Prednisolone],significantly decreased clinical scores,–,–,–,–,–
GAL-4 residues 1-100: N-terminal DNA binding fragment of yeast GAL-4 protein,–,–,–,–,–,3 nM
